Assay results as given in patent US9023821B2, “Use of MicroRNA for treating diseases associated with a dysfunction of the cilia in multiciliated epithelial cells” (Centre National de la Recherche Scientifique, priority 2009, dated 2015).

Experiments:
[1] = test system: human airway epithelial cells (HAECs); experiment: High-throughput sequencing (HTS) of miRNAs at four stages of differentiation of HAECs; details: for Modulation (ratio of the level of intensity of expression in log2 in two stages of differentiation) measured by high-throughput sequencing, D7 − D0 / Modulation (ratio of the level of intensity of expression in log2 in two stages of differentiation) measured by high-throughput sequencing, FC − D7 / Modulation (ratio of the level of intensity of expression in log2 in two stages of differentiation) measured by high-throughput sequencing, WD − D0 / Modulation (ratio of the level of intensity of expression in log2 in two stages of differentiation) measured by high-throughput sequencing, WD − FC / Level of intensity of expression in log2 measured by high-throughput sequencing, D0 / Level of intensity of expression in log2 measured by high-throughput sequencing, D7 / Level of intensity of expression in log2 measured by high-throughput sequencing, FC / Level of intensity of expression in log2 measured by high-throughput sequencing, WD: Table VI; for Level of intensity of expression in log2 At the differentiated stage (WD) measured in HTS: healthy human airway epithelial tissue; for Level of intensity of expression in log2 measured by high-throughput sequencing, D0: stage D0; for Level of intensity of expression in log2 measured by high-throughput sequencing, D7: stage D7; for Level of intensity of expression in log2 measured by high-throughput sequencing, FC: stage FC; for Level of intensity of expression in log2 At the differentiated stage (WD) measured in HTS / Level of intensity of expression in log2 measured by high-throughput sequencing, WD: stage WD
Summary of the method: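 Reads per 5p and 3p strand scaled to 10^6 sequences, then to percentage abundance; linear model plus empirical Bayes normalization. Retained miRNAs exceeded 1% of total in at least one condition, with |Log2 Ratio| below 0.5 and adjusted P-value below 0.05.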

[2] = test system: human airway epithelial cells (HAECs); experiment: Agilent miRNA chips, miRNA expression at four stages of differentiation of HAECs; details: for Modulation (ratio of the level of intensity of expression in log2 in two stages of differentiation) measured with the Agilent chips, D7 − D0 / Modulation (ratio of the level of intensity of expression in log2 in two stages of differentiation) measured with the Agilent chips, FC − D7 / Modulation (ratio of the level of intensity of expression in log2 in two stages of differentiation) measured with the Agilent chips, WD − D0 / Modulation (ratio of the level of intensity of expression in log2 in two stages of differentiation) measured with the Agilent chips, WD − FC / Level of intensity of expression in log2 measured with the Agilent chips, D0 / Level of intensity of expression in log2 measured with the Agilent chips, D7 / Level of intensity of expression in log2 measured with the Agilent chips, FC / Level of intensity of expression in log2 measured with the Agilent chips, WD: Table VI; for Level of intensity of expression in log2 measured with the Agilent chips, D0: stage D0; for Level of intensity of expression in log2 measured with the Agilent chips, D7: stage D7; for Level of intensity of expression in log2 measured with the Agilent chips, FC: stage FC; for Level of intensity of expression in log2 measured with the Agilent chips, WD: stage WD
Summary of the method: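 Microarray v2 (866 human + 89 viral miRNAs; miRBase v.12.0). Input: RNA from the same donors as sequencing. Labelling/hybridization per kit protocol. Profiles cross-checked vs sequencing.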

[3] = test system: basal cells and pyramidal cells of the airway epithelium; experiment: miRNA expression in sorted basal cells versus pyramidal cells (ciliated + secretory), HTS and Agilent chips; set-up: species or system human; details: for Modulation of expression of the miRNAs in pyramidal cells (323(−)) relative to basal cells 323(+): HTS and Agilent chips; for Intensity of the level of expression in log2 in pyramidal cells (323(−)): pyramidal cells (ciliated + secretory)
Summary of the method: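 Nasal polyp or concha epithelial cells from 3 donors were stained with CD151-PE and anti-tissue factor-FITC for 20 min at 4° C, with DAPI excluding damaged cells. CD151+/TF+ basal and CD151−/TF− ciliated/secretory cells were FACS-sorted; total RNA miRNA profiles came from Agilent chips or high-throughput sequencing.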

Row | Substance | Modulation (ratio of the level of intensity of expression in log2 in two stages of differentiation) measured by high-throughput sequencing, D7 − D0 [1] [log2] | Modulation (ratio of the level of intensity of expression in log2 in two stages of differentiation) measured by high-throughput sequencing, FC − D7 [1] [log2] | Modulation (ratio of the level of intensity of expression in log2 in two stages of differentiation) measured by high-throughput sequencing, WD − D0 [1] [log2] | Modulation (ratio of the level of intensity of expression in log2 in two stages of differentiation) measured by high-throughput sequencing, WD − FC [1] [log2] | Level of intensity of expression in log2 At the differentiated stage (WD) measured in HTS [1] [log2] | Level of intensity of expression in log2 measured by high-throughput sequencing, D0 [1] [log2] | Level of intensity of expression in log2 measured by high-throughput sequencing, D7 [1] [log2] | Level of intensity of expression in log2 measured by high-throughput sequencing, FC [1] [log2] | Level of intensity of expression in log2 measured by high-throughput sequencing, WD [1] [log2] | Modulation (ratio of the level of intensity of expression in log2 in two stages of differentiation) measured with the Agilent chips, D7 − D0 [2] [log2] | Modulation (ratio of the level of intensity of expression in log2 in two stages of differentiation) measured with the Agilent chips, FC − D7 ([2]; FC − D7) [log2] | Modulation (ratio of the level of intensity of expression in log2 in two stages of differentiation) measured with the Agilent chips, WD − D0 [2] [log2] | Modulation (ratio of the level of intensity of expression in log2 in two stages of differentiation) measured with the Agilent chips, WD − FC ([2]; WD − FC) [log2] | Level of intensity of expression in log2 measured with the Agilent chips, D0 [2] [log2] | Level of intensity of expression in log2 measured with the Agilent chips, D7 [2] [log2] | Level of intensity of expression in log2 measured with the Agilent chips, FC [2] [log2] | Level of intensity of expression in log2 measured with the Agilent chips, WD [2] [log2] | Modulation of expression of the miRNAs in pyramidal cells (323(−)) relative to basal cells 323(+) [3] | Intensity of the level of expression in log2 in basal cells (323(+)) [3] [log2] | Intensity of the level of expression in log2 in pyramidal cells (323(−)) [3] [log2] | further results
1 | hsa-miR-205: human miRNA, SEQ ID No. 20 (UCCUUCAUUCCACCGGAGUCUG; expressed or natural sequence; listed as Homo sapiens) | 0.62 | −1.12 | −0.06 | 0.44 | 15.24 | 14.61 | 15.23 | 14.11 | 14.55 | 1.00 | −0.72 | −0.11 | −0.39 | 13.18 | 14.18 | 13.46 | 13.07 | −7.00 | 12.44 | 5.44 | Modulation (ratio of the level of intensity of expression in log2 in two stages of differentiation), D7 − D0 ([1]; HTS): 0.62 log2; Modulation (ratio of the level of intensity of expression in log2 in two stages of differentiation), FC − D7 ([1]; HTS): −1.12 log2; Modulation (ratio of the level of intensity of expression in log2 in two stages of differentiation), WD − FC ([1]; HTS): 0.44 log2; Abundance (%), D0 ([1]; HTS, ALI-D0): 5.48%; Abundance (%), D7 ([1]; HTS, ALI-D7): 8.43%; Abundance (%), FC ([1]; HTS, ALI-FC): 3.76%; Abundance (%), WD ([1]; HTS, ALI-WD): 3.87%; cell type in which the miRNA is specifically expressed ([3]; sorted ciliated/pyramidal versus basal cells): more specific to the basal cells
2 | hsa-miR-148a: human miRNA, SEQ ID No. 7 (UCAGUGCACUACAGAACUUUGU; expressed or natural sequence; listed as Homo sapiens) | 1.31 | −0.28 | 1.93 | 0.91 | 8.97 | 7.04 | 8.34 | 8.06 | 8.97 | 2.06 | −0.50 | 1.60 | 0.04 | 7.35 | 9.41 | 8.91 | 8.95 | −1.76 | 7.14 | 5.39 | Modulation (ratio of the level of intensity of expression in log2 at two stages of differentiation), FC − D7 ([2]; FC − D7, Agilent miRNA chips, Table V): −0.50 log2; Modulation (ratio of the level of intensity of expression in log2 at two stages of differentiation), WD − FC ([2]; WD − FC, Agilent miRNA chips, Table V): 0.04 log2
